One assay relates to iPS cells. In words: Alkaline phosphatase staining of iPS cells. The class given is cell-based, mouse. The note with it: 72 hours, control group = 100%. On the procedure: The protocol shown in experiment A was repeated, while an iPS cell (received from Riken Research Center, Japan) was cultured at step (4).
The protocol shown in experiment C was repeated, while an iPS cell (received from Riken Research Center, Japan) was cultured at step (2).
Alkaline phosphatase is a marker protein of stem cells. The activity measured by staining could be used to determine if BP can effectively maintain the self-renewal and/or pluripotency of stem cells.
An experimental group medium (BP5, BP10, BP20 or BP40), a LIF-containing medium (without BP) and a control group medium (without BP) were used respectively to culture ES cells in a 6-well culture dish with an initial density of 1×10^4 per well for 72 hours. The medium was removed and the cells were washed two times with PBS. Next, PBS was removed, and 1 ml of 80% ethanol was added into each well to perform the fixation at 4° C. for 2 to 24 hours. Next, ethanol was removed, and then the cells were washed one time with distilled water. The distilled water was added again to soak the cells for 2 to 3 minutes, and then be removed. Next, the cells were soaked with a Tris-HCl buffer (100 mM, pH 8.2 to 8.5) at room temperature for 5 minutes, and then, the buffer was removed. Next, a Leukocyte Alkaline Phosphatase kit (Vector) was used to perform the staining for 20 to 30 minutes, and then the Alkaline Phosphatase Substrate working solution was removed, the cells were soaked and washed by Tris-HCl buffer (100 mM, pH 8.2 to 8.5) and then be observed by a fluorescent microscope to count the number of the AP-positive clones. The undifferentiated ES cells with a higher activity show a red color, while the differentiated ES cells with a lower activity show a weak red color or are even colorless.
By using the above culture conditions, an experimental group medium (BP5, BP10, BP20 or BP40), a LIF-containing medium (without BP), and a control group medium (without BP) were used respectively to culture iPS cells. Then, the staining of iPS cells was performed by the steps described above. The undifferentiated iPS cells with a higher activity show a red color and the differentiated iPS cells with a lower activity show a weak red color or are even colorless.

For another assay, the system named is Stat3. The experiment in a line: Real-time PCR, Stat3 mRNA in ES cells. Format: cell-based, mouse. The note with it: for Stat3 Gene expression level: ES cells, control group = 100%. On the procedure: An experimental group medium (BP5, BP10, BP20 or BP40) and a control group medium (without BP) were added respectively to perform the following steps. ES cells were cultured with an initial density of 1×10^4 per well in a 6-well culture dish. The medium was removed until the cells growth to be about 70 to 80% confluence, and then 1 ml TRIzol (Invitrogen) was added into each well. The cells were incubated for 5 minutes, and then was scraped by a spatula and placed into a 1.5 ml microtube to be lysed adequately. Chloroform (0.2 ml) was added into the microtubes. The mixture was shaken up and down for 15 seconds, and then incubated at room temperature for 2 to 3 minutes. Thereafter, the mixture was centrifuged at 12000 rpm at 4° C. for 15 minutes, and the supernatant was removed into another 1.5 ml microtube and isopropanol (0.5 ml) was added into the microtube with well mixing. The mixture was incubated at room temperature for 10 minutes and then centrifuged at 12000 rpm at 4° C. for 10 minutes. The supernatant was then removed. One ml of 70% ethanol containing DEPC.H2O was used to wash the remaining sediment. The sediment was centrifuged at 7500 rpm at 4° C. for 5 minutes. The supernatant was removed. The sediment was dried by vacuum suction. The dried samples were dissolved in about 0.01 to 0.02 ml of DEPC.H2O to obtain the experimental group RNA and control group RNA. Both groups were stored at −80° C.
The OD value of RNA samples in both groups obtained from the above Experiment I were measured at a wavelength of 260 nm (RNA: OD260=1 for a 40 μg/mL solution). Each RNA sample (2 μl) was added with RNA-free water until the volume of the sample reached 10 μl. Two μl oligo (dT) (100 μg/ml) was added into each sample, and the samples were incubated at 65° C. for 5 minutes. Then, the samples were immediately placed on ice and spun down. Next, 6.5 μl of a reaction solution [4 μl of 5× buffer+1 μl of 0.1 M DTT+1 μl of RNase out+0.5 μl of SSIII (Invitrogen)] was added into each of the samples, and the samples were incubated at 50° C. for about 30 to 60 minutes and at 75° C. for 15 minutes to obtain the experimental group cDNA and control group cDNA. Both groups were stored at −80° C.
This experiment was used to detect the expression levels of ES cell-related genes, i.e., Oct4 and Sox2, etc. First, 4 μl of the experimental group cDNA or control group cDNA was added into each well of a 96-well micro-reaction plate, and mixed with 6 μl of a reaction solution [0.5 μl of 6 μM forward primer+0.5 μl of 6 μM reverse primer+5 μl of SYBR Green PCR Master mix (Roche)], wherein the SYBR Green PCR Master mix included the reagents needed for Q-PCR, such as dNTPs, MgCl, Taq DNA polymerase and 2×SYBR® Green I solution. […] The cycle threshold (CT) values were measured. […]

Where [1] appears, read: BP10 medium (about 10 μg BP/ml).
The mark [2] stands for this setting: LIF-containing medium (LIF 4 ng/ml, without BP).

The text below walks through data of patent publication US20150056702A1, “METHOD AND KIT FOR CULTURING STEM CELLS” (China Medical University, priority 2013, published 2015).

As for `CCCC=C1OC(=O)c2ccccc21` [BP, n-butylidenephthalide], the AP-positive clones is recorded as 85% with iPS cells (BP5 medium (about 5 μg BP/ml)), 128% with iPS cells (setting [1]), 192% in the assay on iPS cells (BP20 medium (about 20 μg BP/ml)) and 129% in the assay on iPS cells (BP40 medium (about 40 μg BP/ml)). For the same compound, the “Stat3 Gene expression level” value with Stat3 (BP5 medium (about 5 μg BP/ml)) is reported as 169%; with Stat3 (setting [1]), 151%. Besides, the “mRNA expression level of Stat3” value in the assay with Stat3 (BP-containing ES cell medium (BP5 or BP10), result in words) was “significantly up-regulated”.

As to “LIF: multifunctional cell factor used to maintain pluripotency of stem cells; LIF-containing medium (4 ng/ml, without BP) as comparison”, the AP-positive clones with iPS cells (setting [2]) is on record as 226%. In addition, the “Stat3 Gene expression level” value with Stat3 (setting [2]) came out at 194%.
